In paper PMC6331714 (ChemistryOpen, 2019):

Assays:
[1] = target: XIAP (Homo sapiens, UniProt P98170); assay: fluorescence polarization competition with AVPFAQK; type: binding
[2] = target: X-linked inhibitor of apoptosis protein (XIAP) BIR3 domain; assay: fluorescence polarisation

XIAP, sequence (P98170 241-356 limits assumed): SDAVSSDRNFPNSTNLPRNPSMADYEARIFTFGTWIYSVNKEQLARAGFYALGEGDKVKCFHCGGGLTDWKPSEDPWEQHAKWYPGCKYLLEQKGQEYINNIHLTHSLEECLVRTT

Row | Molecule | IC50 [1] [nM] | IC50 [2] [nM]
1 | C[C@H](N)C(=O)N[C@H]1CNC(=O)C[C@H]2CC[C@@H](C(=O)NC(c3ccccc3)c3ccccc3)N2C1=O [ZJ-1, (5 S ,8 S ,10aR)‐5‐((S)‐2‐aminopropanamido)‐N‐benzhydryl‐2,6‐dioxodecahydropyrrolo[1,2‐a][1,5] diazocine‐8‐carboxamide] | 210 | –
2 | AVPI [AVPI, N-terminal tetrapeptide binding motif of Smac/DIABLO (Ala-Val-Pro-Ile)] | – | 1150
